Read-outs that look alike come from different tables or passages of the source.
Tests used:
[1] = target: T1, human serotonin 5-HT2A receptor (Homo sapiens, UniProt P28223); assay: Competition radioligand binding, [3H]-Ketanserin, CHO-K1 membranes; conditions: for Ki: human cloned 5-HT2A; for pKi 5-HT2A/pKi D2: ratio of pKi values; for inhibition at 10 µM: read-out: % inh. at 10 μM 5-HT2A
T1 construct: expressed in transfected cells; host or cells: CHO-K1
Description: (§1) Experiments were carried out in membranes from cell lines stably expressing the human cloned receptors.
(§2) Competition radioligand binding assays were performed on membranes isolated from cell lines stable expressing the cloned human receptors, which were either in-house or commercially available. […] Assays (250 μL assay final volume) were carried out in 96-well polypropylene plates in duplicate. In short, suspension of appropriate membrane protein was incubated in assay buffer with addition of the corresponding radioligand, in the presence or absence of tested compound or reference compound. […] After the incubation, the content of the test plates was transferred to 96-well plates with glass fibre filter GF/B or GF/C, previously pre-treated with polyethyleneimine (PEI), and rapidly filtered with the use of vacuum, followed by rapid washing with cold (4 °C) wash buffer. After that the filter plates were dried at 60 °C for 1 h. Then, 30 μL of liquid scintillation cocktail (UniverSol-ES, MP Biomedicals, Solon, OH) was added to each well of the filter plates and the radioactivity was measured in a MicroBeta2 microplate scintillation counter (PerkinElmer, Madrid, Spain).
(§3) Competition binding curves were fitted to a one-site competition binding model (Fit Ki) with the use of Prism 7 software (GraphPad, San Diego, CA). logKi (log of the equilibrium dissociation constant (Ki)) values were obtained after constraining the concentration of radioligand employed in the assay and its dissociation constant (KD) as determined in saturation radioligand binding assays.

[2] = target: T2, human serotonin 5-HT1A receptor (Homo sapiens, UniProt P08908); assay: Competition radioligand binding, [3H]-8-OH-DPAT, HEK293 membranes; conditions: for Ki: human cloned 5-HT1A; for inhibition at 10 µM: read-out: % inh. at 10 μM 5-HT1A
T2 construct: expressed in transfected cells; host or cells: HEK293
T2 sequence (P08908 1-422): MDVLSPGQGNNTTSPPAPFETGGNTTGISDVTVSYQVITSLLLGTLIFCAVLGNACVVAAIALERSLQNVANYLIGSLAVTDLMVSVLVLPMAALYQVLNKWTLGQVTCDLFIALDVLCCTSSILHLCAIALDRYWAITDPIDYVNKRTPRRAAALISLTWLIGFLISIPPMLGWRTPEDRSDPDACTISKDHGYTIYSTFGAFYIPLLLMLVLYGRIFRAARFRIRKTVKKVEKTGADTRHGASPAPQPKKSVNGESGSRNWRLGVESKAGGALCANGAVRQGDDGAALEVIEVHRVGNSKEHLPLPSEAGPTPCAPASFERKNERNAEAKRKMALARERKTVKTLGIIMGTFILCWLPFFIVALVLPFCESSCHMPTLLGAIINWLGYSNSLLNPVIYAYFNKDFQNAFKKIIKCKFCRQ
Description: as §1, §2, §3

[3] = target: T3, human dopamine D2 (D2S) receptor (Homo sapiens, UniProt P14416); assay: Competition radioligand binding, [3H]-spiperone, CHO-K1 membranes; conditions: for Ki: human cloned D2S; for inhibition at 10 µM: read-out: % inh. at 10 μM D2
T3 construct: expressed in transfected cells; host or cells: CHO-K1
Description: as §1, §2, §3

[4] = test system: mice; assay: Passive avoidance (PA) test (memory); conditions: 40 mg/kg i.p., 60 min before test
[5] = target: T4, human dopamine D1 receptor (Homo sapiens, UniProt P21728); assay: Competition radioligand binding, [3H]-SCH-23390, CHO-K1 membranes
T4 construct: expressed in transfected cells; host or cells: CHO-K1
Description: (§4) Competition radioligand binding assays were performed on membranes isolated from cell lines stable expressing the cloned human receptors, which were either in-house or commercially available. […] Assays (250 μL assay final volume) were carried out in 96-well polypropylene plates in duplicate. In short, suspension of appropriate membrane protein was incubated in assay buffer with addition of the corresponding radioligand, in the presence or absence of tested compound or reference compound. […] Then, 30 μL of liquid scintillation cocktail (UniverSol-ES, MP Biomedicals, Solon, OH) was added to each well of the filter plates and the radioactivity was measured in a MicroBeta2 microplate scintillation counter (PerkinElmer, Madrid, Spain).
as §3

[6] = target: T5, human 5-HT2A receptor (Homo sapiens, UniProt P28223); assay: Functional assay of inositol phosphate production (5-HT2A antagonism), CHO-K1 cells; assay type: cell-based; conditions: for inhibition at 10 µM: CHO-K1, read-out: 5-HT2A antagonism %inh. of 5-HT response; for Kb: read-out: 5-HT2A antagonism (IP signalling) Kb
T5 construct: expressed in transfected cells; host or cells: CHO-K1
Description: The activity of selected compounds at 5-HT2A receptors was investigated in cell-based functional assays of IP production in the CHO-K1 cell line stably expressing the cloned human 5-HT2A receptor also employed for the radioligand binding assays. Twenty-four hours before the experiment, cells in culture were seeded in complete growth medium prepared with dialysed foetal bovine serum, in half-area, white, 96-well tissue culture plates (Corning®, Fisher Scientific SL, Madrid, Spain). At the day of assay, plates were washed with assay buffer (kit stimulation buffer) and incubated with test compounds for 10 min at 37 °C. Test compounds were added to the assay plates from 7× working dilution intermediate plates that were prepared by means of acoustic noncontact dispensing of the compounds, keeping vehicle concentration (0.1% DMSO) constant in the assay. […] After this time, cellular IP levels were quantified by using the HTRF-based inositol monophosphate kit IP-One Gq kit (Cisbio, Bioassays, Codolet, France) following the manufacturer’s protocol. […] Basal IP levels were determined in control wells in the absence of compound and agonist. […] Kb value of the compounds was estimated as described above for functional assays of cAMP signalling at D2 receptors.

[7] = target: T6, human histamine H1 receptor (Homo sapiens, UniProt P35367); assay: Competition radioligand binding, [3H]-pyrilamine, CHO-K1 membranes
T6 construct: expressed in transfected cells; host or cells: CHO-K1
Description: as §4, §3

[8] = target: T7, human dopamine D3 receptor (Homo sapiens, UniProt P35462); assay: Competition radioligand binding, [3H]-spiperone, CHO-K1 membranes
T7 construct: expressed in transfected cells; host or cells: CHO-K1
Description: as §4, §3

[9] = target: T8, human 5-HT1A receptor (Homo sapiens, UniProt P08908); assay: Functional assay of cAMP signalling (5-HT1A agonism), HEK293 cells; assay type: cell-based; conditions: for inhibition at 10 µM: HEK293, 10 µM compound, 1 µM forskolin, read-out: 5-HT1A agonism %inh. of FSK response
T8 construct: expressed in transfected cells; host or cells: HEK293
T8 sequence (P08908 1-422): T2 sequence (P08908 1-422)
Description: The activity of selected compounds at 5-HT1A receptor was investigated in cell-based functional assays of cAMP signalling in the HEK293 cell line stably expressing the cloned human 5-HT1A receptor also employed for the radioligand binding assays. […] Test compounds were added to the assay plates from 5× working dilution intermediate plates, which were prepared by means of acoustic noncontact dispensing of the compounds, keeping vehicle concentration (0.1% DMSO) constant in the assay.

[10] = test system: mice; assay: Amphetamine-induced hyperactivity; conditions: p < 0.0001
[11] = target: T9, human 5-HT7 receptor (Homo sapiens, UniProt P34969); assay: Competition radioligand binding, [3H]-SB269970, HEK293 membranes
T9 construct: expressed in transfected cells; host or cells: HEK293
Description: as §4, §3

[12] = test system: mice; assay: Rota-rod test (motor coordination); assay type: in vivo; conditions: 20, 40, and 80 mg/kg i.p., 60 min after treatment, 3 min
Description: To fully assess the impact of selected compounds on animals’ motor coordination, both compounds (at the same doses as were used for spontaneous locomotor activity measurements) were tested also in the rota-rod test. The applied protocol has been already validated in our laboratory[12]^,[62]^,[63]. […] The time spent by each mouse on the rota-rod was measured for 3 min. The additional aim of the rota-rod test was to confirm the appropriate selection of doses for further behavioural examination. […] After such confirmation, the above-mentioned doses were chosen for the rest of behavioural tests.

[13] = target: human D2S receptor (Homo sapiens, UniProt P14416); assay: Functional assay of cAMP signalling (D2 antagonism), CHO-K1 cells; conditions: for inhibition at 1 µM: CHO-K1, read-out: % of inhibition of 1 µM dopamine response; for inhibition at 10 µM: CHO-K1, read-out: D2 antagonism %inh. of DA response
[14] = test system: mice; assay: Spontaneous locomotor activity; conditions: 20, 40, and 80 mg/kg i.p., recorded 30 min, 30 min after injection
[15] = test system: mice; assay: Elevated plus maze (EPM) test (anxiety); conditions: 40 mg/kg i.p., 60 min before test
[16] = target: T10, human muscarinic M1 receptor (Homo sapiens, UniProt P11229); assay: Competition radioligand binding, [3H]-pirenzepine, CHO-K1 membranes; conditions: read-out: % inh. at 10 μM M1
T10 construct: expressed in transfected cells; host or cells: CHO-K1
T10 sequence (P11229 1-460): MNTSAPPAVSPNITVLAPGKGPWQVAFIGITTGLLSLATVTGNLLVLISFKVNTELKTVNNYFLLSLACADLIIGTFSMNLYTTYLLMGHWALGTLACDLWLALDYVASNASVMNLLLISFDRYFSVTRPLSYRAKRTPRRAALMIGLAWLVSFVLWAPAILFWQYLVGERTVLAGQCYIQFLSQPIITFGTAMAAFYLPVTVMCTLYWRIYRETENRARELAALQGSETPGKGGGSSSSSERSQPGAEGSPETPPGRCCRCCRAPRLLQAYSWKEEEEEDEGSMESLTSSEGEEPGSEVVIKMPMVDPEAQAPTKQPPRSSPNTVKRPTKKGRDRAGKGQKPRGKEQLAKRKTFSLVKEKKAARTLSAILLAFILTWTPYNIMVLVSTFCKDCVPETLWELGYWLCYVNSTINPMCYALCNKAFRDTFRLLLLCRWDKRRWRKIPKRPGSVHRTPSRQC
Description: as §4, §3

[17] = read-out: Ki 5-HT1A (converted)
[18] = mean ± SEM, read-out: pKi D2 (converted)

human D2S receptor, sequence (P14416 1-414 isoform P14416-2): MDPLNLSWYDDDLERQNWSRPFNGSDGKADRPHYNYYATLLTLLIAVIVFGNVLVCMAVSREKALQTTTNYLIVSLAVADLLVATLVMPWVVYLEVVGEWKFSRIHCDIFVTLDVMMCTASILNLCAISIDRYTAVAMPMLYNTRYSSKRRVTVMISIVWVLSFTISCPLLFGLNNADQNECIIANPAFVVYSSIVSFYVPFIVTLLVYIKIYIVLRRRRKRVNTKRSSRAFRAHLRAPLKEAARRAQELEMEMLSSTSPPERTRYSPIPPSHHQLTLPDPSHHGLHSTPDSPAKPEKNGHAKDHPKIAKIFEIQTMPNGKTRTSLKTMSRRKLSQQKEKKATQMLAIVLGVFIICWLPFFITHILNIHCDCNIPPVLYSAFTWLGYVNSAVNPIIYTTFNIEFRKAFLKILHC
T3 sequence (P14416 1-414 isoform P14416-2): as above
T5 sequence (P28223 whole entry): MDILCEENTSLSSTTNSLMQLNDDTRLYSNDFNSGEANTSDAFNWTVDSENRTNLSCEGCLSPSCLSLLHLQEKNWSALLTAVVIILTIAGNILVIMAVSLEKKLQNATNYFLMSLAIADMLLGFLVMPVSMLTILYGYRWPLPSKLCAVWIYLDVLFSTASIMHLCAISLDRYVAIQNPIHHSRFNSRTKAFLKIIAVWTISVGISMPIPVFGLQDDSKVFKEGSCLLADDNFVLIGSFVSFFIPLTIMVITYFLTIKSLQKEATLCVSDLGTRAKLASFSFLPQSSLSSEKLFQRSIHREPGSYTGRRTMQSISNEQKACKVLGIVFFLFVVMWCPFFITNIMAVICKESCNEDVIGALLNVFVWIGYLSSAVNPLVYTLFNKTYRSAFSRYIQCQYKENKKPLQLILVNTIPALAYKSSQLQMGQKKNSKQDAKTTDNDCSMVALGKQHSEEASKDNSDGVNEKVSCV
T1 sequence (P28223 whole entry): as above
T7 sequence (P35462 whole entry): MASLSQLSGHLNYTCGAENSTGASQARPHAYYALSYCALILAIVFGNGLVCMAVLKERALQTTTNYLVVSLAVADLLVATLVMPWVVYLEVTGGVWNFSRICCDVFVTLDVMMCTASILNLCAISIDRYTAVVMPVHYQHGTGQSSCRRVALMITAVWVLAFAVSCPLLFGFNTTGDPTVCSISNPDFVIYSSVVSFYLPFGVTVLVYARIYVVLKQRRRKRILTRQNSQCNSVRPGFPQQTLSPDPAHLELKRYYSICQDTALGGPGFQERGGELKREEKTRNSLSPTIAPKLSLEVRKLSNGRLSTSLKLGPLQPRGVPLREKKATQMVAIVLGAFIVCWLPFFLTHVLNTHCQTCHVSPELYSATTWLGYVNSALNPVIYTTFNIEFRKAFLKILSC
T9 sequence (P34969 whole entry): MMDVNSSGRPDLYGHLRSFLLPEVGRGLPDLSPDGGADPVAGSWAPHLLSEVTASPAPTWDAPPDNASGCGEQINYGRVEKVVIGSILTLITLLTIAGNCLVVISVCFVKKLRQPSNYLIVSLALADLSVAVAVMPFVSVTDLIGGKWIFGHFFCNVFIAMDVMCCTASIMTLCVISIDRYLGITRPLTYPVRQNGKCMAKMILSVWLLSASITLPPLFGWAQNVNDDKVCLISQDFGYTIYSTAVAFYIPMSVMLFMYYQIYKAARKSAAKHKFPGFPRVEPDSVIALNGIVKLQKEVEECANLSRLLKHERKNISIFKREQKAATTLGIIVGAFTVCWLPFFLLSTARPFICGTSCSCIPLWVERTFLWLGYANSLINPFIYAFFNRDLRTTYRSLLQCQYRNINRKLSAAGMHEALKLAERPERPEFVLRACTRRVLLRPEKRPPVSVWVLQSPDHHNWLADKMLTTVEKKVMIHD
T6 sequence (P35367 whole entry): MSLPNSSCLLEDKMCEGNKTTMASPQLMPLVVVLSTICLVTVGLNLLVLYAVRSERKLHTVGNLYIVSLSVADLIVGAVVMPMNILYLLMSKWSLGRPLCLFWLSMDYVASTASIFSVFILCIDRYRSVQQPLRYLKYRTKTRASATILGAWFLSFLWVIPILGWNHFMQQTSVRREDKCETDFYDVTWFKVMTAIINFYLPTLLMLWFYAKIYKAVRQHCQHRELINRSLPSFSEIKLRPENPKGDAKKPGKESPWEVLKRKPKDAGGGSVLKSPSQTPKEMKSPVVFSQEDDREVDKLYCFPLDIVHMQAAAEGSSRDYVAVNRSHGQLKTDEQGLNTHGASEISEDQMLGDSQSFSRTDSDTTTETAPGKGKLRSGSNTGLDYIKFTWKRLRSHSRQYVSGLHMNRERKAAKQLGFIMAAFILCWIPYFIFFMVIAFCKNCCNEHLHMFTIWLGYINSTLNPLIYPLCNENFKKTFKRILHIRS
T4 sequence (P21728 whole entry): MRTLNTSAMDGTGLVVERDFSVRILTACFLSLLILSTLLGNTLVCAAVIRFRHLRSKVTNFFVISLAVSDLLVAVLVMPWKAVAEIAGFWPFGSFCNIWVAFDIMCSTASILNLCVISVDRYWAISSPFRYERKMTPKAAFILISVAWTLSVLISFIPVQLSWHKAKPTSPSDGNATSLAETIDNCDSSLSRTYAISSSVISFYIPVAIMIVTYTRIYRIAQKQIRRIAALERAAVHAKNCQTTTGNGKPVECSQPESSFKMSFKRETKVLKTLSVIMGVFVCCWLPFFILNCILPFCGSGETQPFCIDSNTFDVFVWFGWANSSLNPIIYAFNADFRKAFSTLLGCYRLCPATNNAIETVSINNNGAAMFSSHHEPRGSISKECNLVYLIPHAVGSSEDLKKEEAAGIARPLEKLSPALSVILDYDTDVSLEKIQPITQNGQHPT

| SMILES | Ki [1] [nM] | pKi 5-HT2A/pKi D2 [1] | Ki [2, 17] [nM] | Ki ([3]; read-out: Ki D2 (converted)) [nM] | other results |
| --- | --- | --- | --- | --- | --- |
| CCOc1ccccc1N1CCN(CCCNC(=O)c2n[nH]c3ccccc23)CC1 [Compound 15, N-(3-(4-(2-ethoxyphenyl)piperazin-1-yl)propyl)-1H-indazole-3-carboxamide] | 280 | 0.85 | 46.9 | 19.8 |  |
| O=C(NCCCN1CCN(c2cccc(F)c2)CC1)c1n[nH]c2ccccc12 [Compound 10, N-(3-(4-(3-fluorophenyl)piperazin-1-yl)propyl)-1H-indazole-3-carboxamide] | 94.4 | 1.07 | 114 |  | Effect on PA performance (memory acquisition) [4]: no statistically significant effect on PA performance; Ki [5]: 181 nM; inhibition at 10 µM [6]: 96.8 ± 2%; Kb [6]: 101 ± 31 nM; Ki [7]: 1000 nM; Ki [8]: 719 nM; EC50 [9]: 356 ± 83 nM; inhibition at 10 µM [9]: 90.2 ± 4.1%; Effect on amphetamine-induced hyperactivity ([10]; 40 mg/kg i.p., 30 min before amphetamine 5 mg/kg s.c.): significantly reduced hyperactivity induced by amphetamine; Ki [11]: 589 nM; Motor coordination (rota-rod) [12]: lack of statistically significant difference; Kb [13]: 31.2 nM; inhibition at 1 µM [13]: 50.8 ± 5.4%; inhibition at 10 µM [13]: 52.6 ± 9.8%; Spontaneous locomotor activity [14]: did not induce statistically significant changes; Ki ([2]; mean ± SEM, read-out: pKi 5-HT1A (converted)): 112 nM; Effect on anxiety in EPM test [15]: no statistically significant effect on the EPM performance; inhibition at 10 µM [16]: 0% |
| COc1ccc(N2CCN(CCCNC(=O)c3n[nH]c4ccccc34)CC2)cc1 [Compound 4, N-(3-(4-(4-methoxyphenyl)piperazin-1-yl)propyl)-1H-indazole-3-carboxamide] | 491 |  |  |  | inhibition at 10 µM [2]: 58.4 ± 1.8%; inhibition at 10 µM [3]: 46 ± 6% |
| O=C(NCCCN1CCN(C2CCCCC2)CC1)c1n[nH]c2ccccc12 [Compound 16, N-(3-(4-cyclohexylpiperazin-1-yl)propyl)-1H-indazole-3-carboxamide] |  |  |  |  | inhibition at 10 µM [1]: 25.6 ± 9%; inhibition at 10 µM [2]: 56.7 ± 1.6%; inhibition at 10 µM [3]: 19 ± 6.8% |
| COc1cccc(N2CCN(CCCNC(=O)c3n[nH]c4ccccc34)CC2)c1 [Compound 3, N-(3-(4-(3-methoxyphenyl)piperazin-1-yl)propyl)-1H-indazole-3-carboxamide] | 184 | 1.04 | 110 | 315 |  |
| CSc1ccccc1N1CCN(CCCNC(=O)c2n[nH]c3ccccc23)CC1 [Compound 14, N-(3-(4-(2-(methylthio)phenyl)piperazin-1-yl)propyl)-1H-indazole-3-carboxamide] | 217 | 0.82 | 12.4 | 7.05 |  |
| O=C(NCCCN1CCN(c2ncccn2)CC1)c1n[nH]c2ccccc12 [Compound 8, N-(3-(4-(pyrimidin-2-yl)piperazin-1-yl)propyl)-1H-indazole-3-carboxamide] | 807 | 0.96 | 238 | 480 |  |
| O=C(NCCCN1CCN(c2ccccc2F)CC1)c1n[nH]c2ccccc12 [Compound 9, N-(3-(4-(2-fluorophenyl)piperazin-1-yl)propyl)-1H-indazole-3-carboxamide] | 117 | 0.94 | 135 | 42.2 | Ki [3, 18]: 41.7 nM |
| CC(N)Cc1ccccc1 (stereo not shown) [amphetamine, reference compound] |  |  |  |  | Locomotor activity vs. vehicle group ([10]; 5 mg/kg s.c., recorded 30 min): increased locomotor activity |
| O=C(NCCCN1CCN(c2ccccn2)CC1)c1n[nH]c2ccccc12 [Compound 5, N-(3-(4-(pyridin-2-yl)piperazin-1-yl)propyl)-1H-indazole-3-carboxamide] | 132 | 1.06 | 113 | 339 |  |
| O=C(NCCCN1CCN(c2ccncc2)CC1)c1n[nH]c2ccccc12 [Compound 7, N-(3-(4-(pyridin-4-yl)piperazin-1-yl)propyl)-1H-indazole-3-carboxamide] |  |  |  |  | inhibition at 10 µM [1]: 0%; inhibition at 10 µM [2]: 27.9 ± 2.7%; inhibition at 10 µM [3]: 0% |
| O=C(NCCCN1CCN(c2ccccc2Cl)CC1)c1n[nH]c2ccccc12 [Compound 13, N-(3-(4-(2-chlorophenyl)piperazin-1-yl)propyl)-1H-indazole-3-carboxamide] | 134 | 0.96 | 107 | 69.7 |  |
| O=C(NCCCN1CCN(c2ccc(F)cc2)CC1)c1n[nH]c2ccccc12 [Compound 11, N-(3-(4-(4-fluorophenyl)piperazin-1-yl)propyl)-1H-indazole-3-carboxamide] | 12.6 | 1.24 | 607 | 450 | inhibition at 10 µM [6]: 103 ± 2.2%; Kb [6]: 19.2 ± 7.2 nM; Ki [7]: 364 nM; Ki [8]: 5010 nM; EC50 [9]: 5600 ± 1200 nM; inhibition at 10 µM [9]: 75.3 ± 6.8%; Ki [11]: 196 nM; Kb [13]: 99.1 nM; inhibition at 1 µM [13]: 21.3 ± 4.3%; inhibition at 10 µM [13]: 49.7 ± 8%; inhibition at 10 µM [16]: 0% |
| O=C(NCCCN1CCN(c2ccccc2C(F)(F)F)CC1)c1n[nH]c2ccccc12 [Compound 12, N-(3-(4-(2-(trifluoromethyl)phenyl)piperazin-1-yl)propyl)-1H-indazole-3-carboxamide] | 832 | 0.83 | 423 | 45.2 | Ki [3, 18]: 44.7 nM |
| COc1ccccc1N1CCN(CCCNC(=O)c2n[nH]c3ccccc23)CC1 [Compound 2, N-(3-(4-(2-methoxyphenyl)piperazin-1-yl)propyl)-1H-indazole-3-carboxamide] | 372 | 0.84 | 22.9 | 22.7 |  |
| O=C(NCCCN1CCN(c2cccnc2)CC1)c1n[nH]c2ccccc12 [Compound 6, N-(3-(4-(pyridin-3-yl)piperazin-1-yl)propyl)-1H-indazole-3-carboxamide] | 2650 | 0.93 | 1380 | 1010 |  |

Source: paper PMC10187112 (Journal of Enzyme Inhibition and Medicinal Chemistry, 2023)
